Laboratory results taken from EPA's ToxValDB 9.5 (doi:10.2903/j.efsa.2008.144r).
Converted amounts (≈) assume the structure as drawn.

What was measured:
[1] = tested on: Aphidius rhopalosiphi; test: LR50; higher = less toxic; details: not reported; mortality
[2] = tested on: Tagia sp.
[3] = tested on: Oncorhynchus mykiss; details: chronic/long-term; duration: 94 days
[4] = tested on: Daphnia magna; details: acute; duration: 48 hours; reproduction
[5] = tested on: Colinus virginianus
[6] = tested on: Zea sp.; details: not reported; other
[7] = tested on: Pleurozium sp.; details: acute; duration: 72 hours; biomass
[8] = tested on: Rattus norvegicus
[9] = tested on: Apis mellifera; details: acute; duration: 48 hours; oral; unspecified; mortality
[10] = tested on: Oryctolagus sp.; details: developmental; development
[11] = tested on: Lepomis macrochirus; details: acute; duration: 96 hours; mortality
[12] = tested on: Bibionidae; details: chronic/long-term; duration: 20 days

CC(Cc1ccc(C(C)(C)C)cc1)CN1C[C@@H](C)O[C@@H](C)C1 (stereo partly drawn) [(2R,6S)-Fenpropimorph]
LR50 [1]: 25.7 g/ha | LC50 ([2]; acute, duration: 14 days, mortality): > 1000 mg/kg | NOEC ([2]; chronic/long-term): 9.92 mg/kg | NOEC [3]: 0.00016 mg/L | NOEC [4]: 0.024 mg/L | LD50 ([5]; acute, oral, mortality): > 2000 mg/kg | NOEC ([5]; reproduction developmental): > 30.3 mg/kg-day | LEL [6]: 1690 g/ha | NOEC [7]: 0.005 mg/L | LD50 ([8]; acute, oral, mortality): 2230 mg/kg | NOAEL ([8]; chronic, duration: 2 years, organ weight): 0.3 mg/kg-day | NOAEC ([8]; reproduction developmental, duration: 24 months, reproduction): 16 mg/kg-day | NOAEL ([8]; subchronic, duration: 90 days, oral, clinical chemistry): 0.7 mg/kg-day | LD50 [9]: > 95.6 µg/piece | NOAEL [10]: 15 mg/kg-day | LC50 [11]: 2.3 µg/mL (≈ 7.58 µM) | NOEC [12]: 0.13 mg/L
